Measured values reported in patent publication US5162354A, “3-halo-5-halomethyl-2-oxazolidinones and their use as microbicides” (Buckman Laboratories International, Inc., priority 1991, dated 1992).
Read-outs that look alike come from different tables or passages of the source.

Tested on: mixture of Staphylococcus aureus, Enterobacter aerogenes and Pseudomonas aeruginosa
Assay: Long-term effectiveness in water as disinfectant, basal salts method, mixture of test organisms
Assay type: cell-based
Conditions: read-out: % Reduction (Kill)
Description: In order to test the effectiveness of the compounds of the present invention over a period of 15 days, the following experiment was conducted using Compound 1.
The basal salts method described in U.S. Pat. No. 2,881,070 at column 5, beginning at line 12 and extending to column 6, line 53 was performed at two different pH values and percent kills were obtained with a mixture of test organisms (Staphylococcus aureus, Enterobacter aerogenes and Pseudomonas aeruginosa). […] At 80 ppm, prolonged sanitizing ability is maintained (99% or greater) with prolonged exposure times (24 hours contact through 15 […] post-preparation in water).
^a Control indicates the population of the test organism and is used
to make sure there is vigorous growth and to calculate % kills.

[1] = 10 min, pH 6, Day 1 after preparation in soft water, pH 6.0, 10 min contact
[2] = 10 min, pH 6, Day 2 after preparation in soft water, pH 6.0, 10 min contact
[3] = 10 min, pH 6, Day 3 after preparation in soft water, pH 6.0, 10 min contact
[4] = 10 min, pH 6, Day 4 after preparation in soft water, pH 6.0, 10 min contact
[5] = 10 min, pH 6, Day 5 after preparation in soft water, pH 6.0, 10 min contact
[6] = 10 min, pH 6, Day 14 after preparation in soft water, pH 6.0, 10 min contact
[7] = 10 min, pH 6, Day 15 after preparation in soft water, pH 6.0, 10 min contact
[8] = 10 min, pH 8, Day 1 after preparation in soft water, pH 8.0, 10 min contact
[9] = 10 min, pH 8, Day 2 after preparation in soft water, pH 8.0, 10 min contact
[10] = 10 min, pH 8, Day 3 after preparation in soft water, pH 8.0, 10 min contact
[11] = 10 min, pH 8, Day 4 after preparation in soft water, pH 8.0, 10 min contact
[12] = 10 min, pH 8, Day 5 after preparation in soft water, pH 8.0, 10 min contact
[13] = 10 min, pH 8, Day 14 after preparation in soft water, pH 8.0, 10 min contact
[14] = 10 min, pH 8, Day 15 after preparation in soft water, pH 8.0, 10 min contact
[15] = 24 h, pH 6, Day 1 after preparation in soft water, pH 6.0, 24 hours contact
[16] = 24 h, pH 6, Day 2 after preparation in soft water, pH 6.0, 24 hours contact
[17] = 24 h, pH 6, Day 3 after preparation in soft water, pH 6.0, 24 hours contact

O=C1OC(CCl)CN1Br (stereo not shown) [Compound 1, 3-Bromo-5-chloromethyl-2-oxazolidinone]
killing at 40 ppm [1]: 100% | killing at 80 ppm [1]: 100% | killing at 40 ppm [2]: 100% | killing at 80 ppm [2]: 100% | killing at 40 ppm [3]: 100% | killing at 80 ppm [3]: 100% | killing at 40 ppm [4]: 38.8% | killing at 80 ppm [4]: 54.3% | killing at 40 ppm [5]: 26.8% | killing at 80 ppm [5]: 41.4% | killing at 40 ppm [6]: 40% | killing at 80 ppm [6]: 28.7% | killing at 40 ppm [7]: 39.3% | killing at 80 ppm [7]: 13.1% | killing at 40 ppm [8]: 100% | killing at 80 ppm [8]: 100% | killing at 40 ppm [9]: 100% | killing at 80 ppm [9]: 100% | killing at 40 ppm [10]: 100% | killing at 80 ppm [10]: 100% | killing at 40 ppm [11]: 34.2% | killing at 80 ppm [11]: 46% | killing at 40 ppm [12]: 51.8% | killing at 80 ppm [12]: 51.8% | killing at 40 ppm [13]: 69.5% | killing at 80 ppm [13]: 83.8% | killing at 40 ppm [14]: 68.6% | killing at 80 ppm [14]: 70.2% | killing at 40 ppm [15]: 100% | killing at 80 ppm [15]: 100% | killing at 40 ppm [16]: 100% | killing at 80 ppm [16]: 100% | killing at 40 ppm [17]: 100% | killing at 80 ppm [17]: 100%
